Source: ChEMBL document CHEMBL1201862, “PubChem BioAssay data set” (2004)
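Tested at 5 concentrations; 48 h exposure; 96-well plates; endpoints linearly interpolated, else capped at highest concentration. Abbreviation: GI50, concentration required for 50% inhibition of growth.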 Calls of active or inactive are those of the source. Rule as the data show it: active = GI50 up to about 1.1 µM and inactive = higher.

Legend:
Test in all cases: NCI anticancer screen, dose series, 48 h
UO-31 = system: UO-31
MDA-MB-231 = system: MDA-MB-231
U-251 = system: U-251
ACHN = system: ACHN
OVCAR-8 = system: OVCAR-8
SK-MEL-28 = system: SK-MEL-28
SW-620 = system: SW-620
COLO 205 = system: COLO 205
K562 = system: K562
LOX IMVI = system: LOX IMVI
SR = system: SR
T47D = system: T47D
KM12 = system: KM12
A549 = system: A549
DU-145 = system: DU-145
TK-10 = system: TK-10
CAKI-1 = system: CAKI-1
SF-268 = system: SF-268
UACC-257 = system: UACC-257
NCI-H226 = system: NCI-H226
HOP-62 = system: HOP-62
NCI-H23 = system: NCI-H23
M14 = system: M14
NCI-H522 = system: NCI-H522
EKVX = system: EKVX
SN12C = system: SN12C
MOLT-4 = system: MOLT-4
HCT-15 = system: HCT-15
MDA-N = system: MDA-N
SK-MEL-5 = system: SK-MEL-5
IGROV-1 = system: IGROV-1
SF-539 = system: SF-539
SK-MEL-2 = system: SK-MEL-2
HOP-92 = system: HOP-92
MDA-MB-435 = system: MDA-MB-435
HCC 2998 = system: HCC 2998
Malme-3M = system: Malme-3M
OVCAR-5 = system: OVCAR-5
UACC-62 = system: UACC-62
NCI-H460 = system: NCI-H460
BT-549 = system: BT-549
RPMI-8226 = system: RPMI-8226
PC-3 = system: PC-3
HCT-116 = system: HCT-116
SF-295 = system: SF-295
OVCAR-4 = system: OVCAR-4
HL-60 = system: HL-60
SNB-19 = system: SNB-19
CCRF-CEM = system: CCRF-CEM
SK-OV-3 = system: SK-OV-3
SNB-75 = system: SNB-75
RXF 393 = system: RXF 393
HT-29 = system: HT-29
Hs-578T = system: Hs-578T
A498 = system: A498
OVCAR-3 = system: OVCAR-3
NCI/ADR-RES = system: NCI/ADR-RES
MCF7 = system: MCF7
786-0 = system: 786-0

Measured: GI50

COC(=O)[C@H](Cc1ccccc1)NC(=O)c1ccc(CNC(=O)/C=C/c2ccc(OCc3ccccc3)cc2)cc1
40.1 µM: HCT-15
active: HL-60 < 0.01 µM
inactive: UO-31 14 µM | MDA-MB-231 16.5 µM | U-251 18.1 µM | ACHN 14.9 µM | OVCAR-8 13.3 µM | SK-MEL-28 4.49 µM | SW-620 > 47.4 µM | COLO 205 > 73.3 µM | K562 12 µM | LOX IMVI 17.1 µM | SR 12.1 µM | T47D 18.8 µM | KM12 19.1 µM | A549 27 µM | DU-145 12.4 µM | TK-10 13.5 µM | CAKI-1 12.1 µM | SF-268 10.8 µM | UACC-257 2.49 µM | NCI-H226 21.3 µM | HOP-62 12.6 µM | NCI-H23 14.5 µM | M14 2.44 µM | NCI-H522 65.9 µM | EKVX 25.7 µM | SN12C 13.9 µM | MOLT-4 6.17 µM | MDA-N 2.19 µM | SK-MEL-5 7.87 µM | IGROV-1 2.7 µM | SF-539 16.4 µM | SK-MEL-2 2.55 µM | HOP-92 2.45 µM | MDA-MB-435 2.62 µM | HCC 2998 24.3 µM | Malme-3M 3.5 µM | OVCAR-5 38.2 µM | UACC-62 4.44 µM | NCI-H460 19.5 µM | BT-549 21.5 µM | RPMI-8226 39 µM | PC-3 14.7 µM | HCT-116 25.2 µM | SF-295 18.4 µM | OVCAR-4 6.55 µM | SNB-19 15.7 µM | CCRF-CEM 17.4 µM | SK-OV-3 24.4 µM | SNB-75 13.8 µM | RXF 393 6.34 µM | HT-29 13.5 µM | Hs-578T 5.66 µM | A498 2.59 µM | OVCAR-3 10.7 µM | NCI/ADR-RES 30.4 µM | MCF7 29.4 µM | 786-0 5.11 µM
